Several values for one entry are separate records, joined by “and”; a condition that tells them apart may be missing. Equal values may be shown once. Read-outs that look alike come from different tables or passages of the source.
Tests used:
[1] = system: Diphyllobothrium erinacei; assay: Test of anthelmintic effect against Diphyllobothrium erinacei (tapeworm) in experimentally infected cats (Test Examples A5, B5, C5, D5); conditions: for anthelmintic effect: 5 continuous administrations of 50 mg/Kg
[2] = system: swine Oesophagostomum (Oesophagostomum dentatum); assay: Test of anthelmintic effect against swine Oesophagostomum in naturally infected pigs, E.P.G. on 7th day (Test Examples A8, B8, C8, D8); type: in vivo; conditions: for anthelmintic effect: one administration of 20 mg/Kg
Experimental: Six pigs infected with swine Oesophagostomum (naturally infected pigs) were employed by grouping them into groups each of two pigs.
(§1) As a control, only gelatin capsules were administered orally to the two pigs.
(§2) Before administration and on the 7th day after administration, fecal matter testing was conducted to calculate the E.P.G., and the anthelmintic effect was judged by the changing of the E.P.G. to negative.

[3] = system: Liver fluke; Fasciola hepatica (F. hepatica); assay: Test of anthelmintic effect against rat infected experimentally with liver fluke (Test Examples A11, B11, C11, D11); type: in vivo; parameters: key to Presence or absence of fluke egg in fecal matter On 21st day after the last administration: +: indicates detection of fluke egg; -: indicates no detection; conditions: for anthelmintic effect: five administrations in a dose of 50 mg/Kg each
From the text: Twenty-eight (28) rats were employed in fourteen groups each of two rats, each rat being infected with 5 metacercariae of Liver fluke; Fasciola he^patica (F.. hepatica) and confirmed to have worm eggs on the 75th day after infection according to fecal matter testing.
Judgement of the effect was made by the presence or absence of the worm gees in the fecal matter on the 21st day after the last administration and by examination according to autopsis as to whether the worm bodies were dead or alive in the liver.
The same as that in Test Example All, but eight (8) rats were employed by grouping them into groups each of two rats, each rat being infected with 5 metacercariae of liver fluke and confirmed to have fluke eggs on the 75th day after infection according to fecal matter testing.
The compounds provided for the tests were Compound Nos. Bl, B8 and B19.
The same as that in Test Example All, but six (6) rats were employed by grouping them into groups each of two rats, each rat being infected with 5 metacercariae of Fasciola hepatica and confirmed to have worm eggs on the 75th day after infection according to fecal matter testing.
The compounds provided for the tests were Compound Nos. C2 and C6.
The same as that in Test Example All, but the compounds provided for tests were Compound Nos. D14, D15 and D16.

[4] = system: canine strongyloides (Strongyloides stercoralis); assay: Anthelmintic test against canine strongyloides in naturally infected dogs, E.P.G. on 7th day (Test Examples A4, B4, C4, D4); type: in vivo
Experimental: Three dogs infected with canine strongyloides (naturally infected dogs) were employed by grouping them into a group of two and a group of one.
As control, only a gelatin capsule was administered orally to the one dog.
as §2
(§3) As control, only gelatin capsules were administered orally to the one dog.
as §3

[5] = system: stomach worm (Haemonchus controtus); assay: Anthelmintic test against cow stomach worm in naturally infected cows, E.P.G. on 7th day (Test Examples A6, B6, C6, D6); type: in vivo; conditions: cows
Experimental: Three cows infected with stomach worm (naturally infected cows) were employed by grouping them into a group of two and a group of one.
(§4) As control, only gelatin capsules were administered orally to the one cow.
as §2, §4, §4

[6] = system: canine filaria; Dirofilaria immitis; assay: Test of anthelmintic effect against canine filaria in naturally infected dogs, subcutaneous injection, microfilaria in blood and adult filaria at autopsy (Test Examples A10, B10, C10, D10); type: in vivo; conditions: for inhibition in vivo at 20 mg/kg / inhibition in vivo at 30 mg/kg: Dirofilaria immitis, sc, 240 h
[7] = system: fowl roundworm (As. galli); assay: Anthelmintic test in chickens artificially infected with fowl roundworm, compound added to feed, E.P.G. and worm count up to 21st day (Test Examples A2, B2, C2, D2); type: in vivo, Ascaridia galli
[8] = system: swine whipworm (Trichuris suis); assay: Test of anthelmintic effect in naturally infected pigs, E.P.G. on 7th day: swine whipworm (Test Examples A9, B9, C9, D9); type: in vivo; conditions: pigs, 50 mg/Kg orally once, one value per pig
Experimental: (§5) Six pigs infected with swine roundworm and swine whipworm (naturally infected pigs) were employed in groups each of two pigs.
as §1
(§6) Before administration and on the 7th day after. administration, fecal matter testing was conducted to calculate the E.P.G., and the anthelmintic effect was judged by the changing of the E.P.G. to negative'.
(§7) 50 mg of each compound was placed in a gelatin capsule per 1 Kg of body weight and administered orally to each of the two pigs. As control, only gelatin capsules were administered orally to two pigs.
(§8) 30 mg of each compound was placed in a gelatin capsule per 1 Kg of body weight and administered orally to each of the two pigs. As control, only gelatin capsules were administered orally to two pigs.

[9] = system: fowl roundworm (Ascaridia galli); assay: Anthelmintic test in chickens artificially infected with fowl roundworm, single oral dose in gelatin capsule, worm bodies counted within 48 hours (Test Examples A1, B1, C1, D1); type: in vivo; conditions: Ascaridia galli, po, 48 h, read-out: Anthelmintic effect after 48 hours
Procedure, shortened: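 Groups of three chickens with confirmed Ascaridia galli infection given a single oral dose in gelatin capsule (10 and 20 mg/kg in A1 and B1; 30 and 50 mg/kg in C1; 15 and 30 mg/kg in D1). Worms expelled over 48 h and those remaining in the gut at necropsy counted to give anthelmintic percentage.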

[10] = system: swine roundworm (Ascaris suum); assay: Test of anthelmintic effect in naturally infected pigs, E.P.G. on 7th day: swine roundworm (Test Examples A9, B9, C9, D9); type: in vivo
Experimental: as §5, §1, §6, §7, §8

[11] = dogs, administration of 20 mg/Kg repeated three times, given as about 50% or more, read-out: anthelmintic effect against adult filaria
[12] = dogs, 20 mg/Kg x 3 subcutaneously, autopsy on 10th day after the last administration, one value per dog, 20 mg/kg
[13] = dogs, administration of 20 mg/Kg repeated three times
[14] = Ascaridia galli, po, 504 h, chickens, 50 ppm added to feed, worm count on 21st day, one value per chicken, read-out: Anthelmintic effect
[15] = chicken, 30 mg/Kg oral in gelatin capsule, chickens No.1-3
[16] = Ascaridia galli, feed or water, 504 h, chicken, 25 ppm in feed, read-out: Anthelmintic effect
[17] = Ascaridia galli, feed or water, 504 h, chicken, 50 ppm in feed, read-out: Anthelmintic effect

C#CCN(OCC=C)C(C)=O [Compound A3, N-propargyl-N-acetyl-O-allylhydroxylamine]
Number of worm bodies remaining in enteron ([1]; cats infected with 5 plerocercoids, 50 mg/Kg x 5 times orally, autopsy ten days after administration, one value per cat): 0
Worm egg detection on 10th day after administration ([1]; cats, 50 mg/Kg x 5 times orally, one value per cat (Table A7)): -
anthelmintic effect ([1]; cats): marked anthelmintic effects
Change of E.P.G. Before administration ([2]; pigs, 20 mg/Kg orally once, baseline, one value per pig, 20 mg/kg): 1,600 E.P.G. and 1,000 E.P.G.
Change of E.P.G. 7th day ([2]; pigs, 20 mg/Kg orally once, one value per pig): 0 E.P.G.
anthelmintic effect ([2]; pigs): marked anthelmintic effect
Condition of fluke body ([3]; rats, 50 mg/Kg x 5 orally, autopsy, liver, "Denatured" = fluke body is alive but a part of fluke body has changed, one value per rat): dead
Presence or absence of fluke egg in fecal matter On 21st day after the last administration ([3]; rats, 50 mg/Kg x 5 orally, one value per rat): -
Change of E.P.G. Before administration ([4]; dogs, 10 mg/Kg orally once, baseline, one value per dog, 10 mg/kg): 1,900 E.P.G. and 2,700 E.P.G.
Change of E.P.G. 7th day ([4]; dogs, 10 mg/Kg orally once, one value per dog): 0 E.P.G.
Change of E.P.G. Before administration ([5]; 15 mg/Kg orally once, baseline, one value per cow, 15 mg/kg): 1,700 E.P.G. and 1,500 E.P.G.
Change of E.P.G. 7th day ([5]; 15 mg/Kg orally once, one value per cow): 0 E.P.G.
anthelmintic effect ([5]; one administration of 15 mg/Kg): marked anthelmintic effect
inhibition in vivo at 20 mg/kg [6, 11]: ≥ 50%
Effect on adult filaria: Number of worms killed/Total parasites [6, 12]: 13/18 and 4/ 8
Effect on adult filaria: Percent of worms killed [6, 12]: 72% and 50%
Number of microfilaria/20 µl On 10th day after the last administration ([6]; dogs, 20 mg/Kg x 3 subcutaneously, earlobe blood, one value per dog): 0 /20 µl
anthelmintic effect against microfilaria (mf) [6, 13]: marked anthelmintic effect
inhibition in vivo at 10 ppm ([7]; Ascaridia galli, po, 504 h, chickens, 10 ppm added to feed, worm count on 21st day, one value per chicken, read-out: Anthelmintic effect): 100%
inhibition in vivo at 50 ppm [7, 14]: 100%

C=CCN(OC)C(=O)c1ccccc1 [Compound B5, N-allyl-N-benzoyl-O-methylhydroxylamine]
Change of E.P.G. Before administration ([8]; baseline, 50 mg/kg): 2,100 E.P.G. and 1,300 E.P.G.
Change of E.P.G. 7th day [8]: 0 E.P.G.
inhibition in vivo at 30 mg/kg ([9]; chickens, 30 mg/Kg orally in gelatin capsule, one value per chicken (No.1-3)): 100%
inhibition in vivo at 50 mg/kg ([9]; chickens, 50 mg/Kg orally in gelatin capsule, one value per chicken (No.1-3)): 100%
inhibition in vivo at 20 ppm ([7]; Ascaridia galli, po, 504 h, chickens, 20 ppm added to feed, worm count on 21st day, one value per chicken, read-out: Anthelmintic effect): 80 to 90%
inhibition in vivo at 50 ppm [7, 14]: 100%
anthelmintic effect ([10]; pigs infected with swine roundworm and swine whipworm (statement covers both), one administration of 50 mg/Kg): marked anthelmintic effect
Change of E.P.G. 7th day ([10]; pigs, 50 mg/Kg orally once, Ascaris suum, one value per pig): 0 E.P.G.

C=CCON(CC=C)C(=O)CC [Compound C2]
Number of worm bodies remaining in enteron ([1]; cat, 50 mg/Kg x 5, oral in gelatin capsule): 0
Worm egg detection on 10th day after administration ([1]; cat, 50 mg/Kg x 5, oral in gelatin capsule, once per day for 5 days): -
anthelmintic effect ([1]; cats): marked anthelmintic effects
Change of E.P.G. 7th day ([2]; pig, Oesophagostomum dentatum, 20 mg/Kg, one administration): 0
Change of E.P.G. Before administration ([2]; pig, Oesophagostomum dentatum, before 20 mg/Kg (baseline)): 1,700 and 1,200
anthelmintic effect ([2]; pigs): marked anthelmintic effect
Condition of fluke body ([3]; rat, 50 mg/Kg x 5): dead
Presence or absence of fluke egg in fecal matter On 21st day after the last administration ([3]; rat, 50 mg/Kg x 5): -
anthelmintic effect ([3]; rats): marked antihelmintic effect
inhibition in vivo at 30 mg/kg [9, 15]: 100%
inhibition in vivo at 50 mg/kg ([9]; chicken, 50 mg/Kg oral in gelatin capsule, chickens No.1-3): 100%
inhibition in vivo at 30 mg/kg ([6]; dog, 30 mg/Kg x 3, subcutaneous injection, read-out: Effect on adult filaria: Percent of worms killed): 62%
inhibition in vivo at 30 mg/kg ([6]; dogs, administration of 30 mg/Kg repeated three times, given as about 50% or more, read-out: anthelmintic effect against adult filaria): ≥ 50%
Number of microfilaria/20 µl On 10th day after the last administration ([6]; dog, 30 mg/Kg x 3, subcutaneous injection, suspension in 1% Tween 80): 0 /20 µl
Effect on adult filaria: Number of worms killed/ Total parasite ([6]; dog, 30 mg/Kg x 3, subcutaneous injection, 30 mg/kg): 5/8 and 8/13
anthelmintic effect against microfilaria (mf) ([6]; dogs, administration of 30 mg/Kg repeated three times): marked anthelmintic effect
inhibition in vivo at 25 ppm [7, 16]: 100%
inhibition in vivo at 50 ppm [7, 17]: 100%
Change of E.P.G. 21st day ([7]; chicken, 25 ppm in feed): 0
Change of E.P.G. 21st day ([7]; chicken, 50 ppm in feed): 0

C#CCNOC.Cl [Compound D16, N-propargyl-O-methylhydroxylamine hydrochloride]
Number of worms remaining in enteron ([1]; cat, 50 mg/Kg x 5): 0
anthelmintic effect ([1]; cats): marked anthelmintic effects
Condition of fluke bodies ([3]; rat, 50 mg/Kg x 5): dead
Presence or absence of fluke egg in fecal matter On 21st day after the last administration ([3]; rat, 50 mg/Kg x 5): -
anthelmintic effect ([3]; rats): marked anthelmintic effect
Change of E.P.G. 7th day ([4]; dog, Strongyloides stercoralis, 10 mg/Kg, one administration): 0
Change of E.P.G. Before administration ([4]; dog, Strongyloides stercoralis, before 10 mg/Kg (baseline), hydrochloride): 2,300 and 1,800
anthelmintic effect ([4]; dogs, one administration of 10 mg/Kg): marked anthelmintic effect
inhibition in vivo at 15 mg/kg ([9]; chicken, 15 mg/Kg oral in gelatin capsule, chickens No.1-3): 100%
inhibition in vivo at 30 mg/kg [9, 15]: 100%
inhibition in vivo at 20 mg/kg ([6]; dog, 20 mg/Kg x 3, subcutaneous injection, read-out: Effect on adult filaria: Percent of worms killed): 55%
inhibition in vivo at 20 mg/kg [6, 11]: ≥ 50%
Number of microfilaria/20µl On 10th day after the administration ([6]; dog, 20 mg/Kg x 3, subcutaneous injection): 0 /20µl
Effect on adult filaria: Number of worms killed/ Total parasite ([6]; dog, 20 mg/Kg x 3, subcutaneous injection, hydrochloride, 20 mg/kg): 16/29 and 23/37
Number of microfilaria/20µl Before administration ([6]; dog, before 20 mg/Kg x 3 subcutaneous injection (baseline), hydrochloride): 18 /20µl and 31 /20µl
anthelmintic effect against microfilaria (mf) [6, 13]: marked anthelmintic effect
inhibition in vivo at 25 ppm [7, 16]: 100%
inhibition in vivo at 50 ppm [7, 17]: 100%
